{
  "source": "patent US8802654B2",
  "about": "“Antiviral compounds” (Adenovir Pharma AB, priority 2009, dated 2014)",
  "system": "HAdV-37 virions",
  "experiment": "Binding assay: inhibition of the binding of 35S-labeled HAdV-37 virions to HCE cells",
  "assay_type": "cell-based",
  "conditions": "monovalent sialic acid, stated for comparison with Table 1",
  "procedure": "HCE (human corneal epithelial) and A549 cells were grown as previously described (Araki-Sasaki, K., Ohasi, K. Y., Sasabe, T., Hayashi, K., Watanabe, H., Tano, Y., Handa, H., 1995. “An SV-40-immortalized human corneal epithelial cell line and its characterization.” Invest. Ophtahlmol. 36, 614-621 and Amberg, N., Edlund, K., Kidd, A. H., Wadell, G., 2000a. Adenovirus type 37 uses sialic acid as a cellular receptor. J. Virol. 74, 42-48.).\nHAdV37 (strain 1477) virions were produced as follows: 0.3 mL of HAdV37 inoculation material (prepared from infected A549 cells) was added to A549 cells (175 cm^2 flasks) and incubated for 2 h at 37° C. […] The specific radioactivity of labeled virions was determined to be 4×10^−6 cpm per virion. The identity of HAdV-37 was determined by digesting viral DNA with restriction enzymes and compared to established patterns for HAdV-37 prototype strain (Wadell, G., Sundell, G., de Jong, J. C., 1981. Characterization of candidate adenovirus 37 by SDS-polyacrylamide gel electrophoresis of virion polypeptides and DNA restriction site mapping. J. Med. Virol. 7, 119-125.). […]\nAfter one additional hour, unbound virions were removed by washing, and the cell-associated radioactivity was measured with a Wallac 1409 scintillation counter (Perkin-Elmer). […]",
  "data": [
    {"smiles": "CC(=O)N[C@H]1[C@H]([C@H](O)[C@H](O)CO)OC(O)(C(=O)O)C[C@@H]1O", "note": "(stereo partly shown) [sialic acid]", "values": [
      {"measurement": "IC50", "result": "2 to 5", "unit": "mM"}
    ]}
  ]
}
